Experimental data taken from patent US7906486B2, “Method of treating or preventing tissue deterioration, injury or damage due to disease of mucosa” (SciClone Pharmaceuticals, Inc., priority 2007, dated 2011).
Values joined by “and” are separate entries in the source; they are usually repeats but may differ in a detail not shown here. Equal entries are not always repeated.

What was measured:
[1] = Weights and survival (Example 4, SCI-04); format: in vivo, Syrian Golden Hamsters; design: Animal weight: unit not given here; settings: for Animal weight: Group 2 (SCV-07 10 μg/kg, day −1 to day 20), individual animals
Description: All animals were weighed daily and their survival recorded, in order to assess possible differences in animal weight among treatment groups as an indication for mucositis severity and/or possible toxicity resulting from the treatments.
There were no significant differences in weight changes between study groups. The mean daily percent weight change data was evaluated. The saline treated control hamsters gained an average of 46.5% of their starting weight during the study. Hamsters in the group receiving SCV-07 at 10 μg/kg on days −1 to 20 gained an average of 51.3% of their starting weight during the study. Hamsters in the group receiving SCV-07 at 100 μg/kg on days −1 to 20 gained an average of 46.7% of their starting weight during the study. Hamsters in the group receiving SCV-07 at 1 mg/kg from day −1 to day 20 gained an average of 48.8% of their starting weight during the study. The significance of these differences was evaluated by calculating the area-under-the-curve (AUC) for the weight gain of each animal, and then comparing the different treatment groups using a One-Way ANOVA test.

[2] = system: oral mucositis induced by fractionated radiation (eight doses of 7.5 Gy, left buccal cheek pouch); assay: Oral mucositis induced by fractionated radiation in hamsters, mucositis scoring (Example 3, SCI-03); format: in vivo, Syrian Golden Hamsters; settings: for % Days >=3 / Days <3 / Days >=3 / Chi Sq v control: 100 ug/kg, qd; for Days >=3: animal days with mucositis score of three or more; for Chi Sq v control: days with score >=3
From the text: The fractionated radiation model in hamsters, developed by the Principal Investigator, has proven to be an accurate, efficient and cost-effective technique to provide a preliminary evaluation of anti-mucositis compounds. In this model, hamsters receive 8 doses of 7.5 Gy to the left cheek pouch on days 0, 1, 2, 3, […], rather than the single dose of 40 Gy on day 0 that is used in acute radiation studies. The rationale for using this scheduling for the radiation is that it more closely resembles the clinical courses of radiotherapy given to cancer patients. The course of mucositis in this model is well defined and results in peak mucositis scores approximately 14-16 days following radiation. Mortality (generally from the side effects of anesthesia) in the fractionated radiation model is slightly higher than that seen in the acute radiation model and group sizes are increased (to 10 per group) to allow for this.
(§1) Forty (40) male Syrian Golden Hamsters were given eight doses of radiation of 7.5 Gy each directed to their left buccal cheek pouch on days 0, 1, 2, 3, 6, 7, 8 and 9. This was accomplished by anesthetizing the animals and everting the left buccal pouch, while protecting the rest of the animal's bodies with a lead shield. Test materials were given by sub-cutaneous injection once daily as detailed in Table 9. Mucositis was evaluated clinically starting on day 7, and continuing on alternate days until day 35. Test articles were given as outlined Table 9, Groups 1 and 2 were dosed from Day −1 to Day 29, Group 3 was dosed on the days of radiation only, Group 4 was dosed on the days between Day −15 and Day 29 on which no radiation is given (Day −1, Day 4, Day 5 and Day 10 to Day 29).
The effect on mucositis of each drug treatment compared to placebo was assessed according to the following parameters:
On each evaluation day, the number of animals with a blinded mucositis score of ≧3 in each drug treatment group was compared to the control group. Differences were compared on a cumulative basis and statistical significance was determined by chi-square analysis. Efficacy, in this analysis, is defined by a significant reduction in the number of days that a group of animals had ulcerations (scores ≧3) when compared to the control group.
For each evaluation day the scores of the control group were compared to those of the treated groups using non-parametric rank sum analysis. Treatment success was considered as a statistically significant lowering of scores in the treated group on 2 or more days from day 6 to day 28.
as §1, with “daily at 8:00 am” for “daily”, “9. […]” for “9. Mucositis was evaluated clinically starting on day 7, and continuing on alternate days until day 35.”, “2 was” for “2 were”, “radiation only (days 0-3 and days 6-10),” for “radiation only,”, “Day −1” for “Day −15”, “Day 4 to” for “Day 4,”
Radiation was generated with a Philips 160 kVp (kilovolt potential) (18.75-ma) X-ray source at a focal distance of 30 cm, with a 3.0 mm hardened Al filtration system. Irradiation was targeted to the left buccal pouch mucosa at a rate of 3.32 Gy/minute. […] Using this calibration, the energy received by each animal at each radiation dose was approximately 64.5 nC (nanoCoulombs) at each time point. Prior to irradiation, animals were anesthetized with an intraperitoneal injection of ketamine (160 mg/kg) and xylazine (8 mg/kg). The left buccal pouch was everted, fixed and isolated using a lead shield.
The mucositis score, weight change and survival were measured throughout the study as described above. […]

[3] = system: bone marrow cells; settings: cited from earlier work
[4] = 100 ug/kg from day -1 to day 29
[5] = 100 ug/kg on the days of radiation (0-3 and 6-9)

SMILES: N[C@H](CCC(=O)N[C@@H](Cc1c[nH]c2ccccc12)C(=O)O)C(=O)O [SCV-07, γ-D-glutamyl-L-tryptophan]
- average weight gain, % of starting weight during the study ([1]; 10 ug/kg on days -1 to 20): 51.3%
- average weight gain, % of starting weight during the study ([1]; 100 ug/kg on days -1 to 20): 46.7%
- average weight gain, % of starting weight during the study ([1]; 1 mg/kg from day -1 to day 20): 48.8%
- Animal weight ([1]; day 0): 77 (2×) and 102 and 84 and 80 and 94
- Animal weight ([1]; day 1): 74 and 101 and 83 and 80 and 76 and 91
- Animal weight ([1]; day 2): 78 and 104 and 89 and 86 and 77 and 94
- Animal weight ([1]; day 3): 82 and 111 and 93 and 88 and 79 and 98
- Animal weight ([1]; day 4): 83 and 113 and 95 and 90 and 82 and 101
- Animal weight ([1]; day 5): 86 and 112 and 98 and 93 and 83 and 103
- Animal weight ([1]; day 6): 88 and 114 and 101 and 96 and 84 and 106
- Animal weight ([1]; day 7): 90 and 117 and 103 and 98 and 86 and 108 and 80
- Animal weight ([1]; day 8): 92 and 121 and 106 and 101 and 88 and 109 and 83
- Animal weight ([1]; day 9): 94 and 122 and 106 and 102 and 91 and 108 and 83
- Animal weight ([1]; day 10): 96 and 125 and 112 and 105 and 90 and 109 and 85
- Animal weight ([1]; day 11): 98 and 125 and 111 and 105 and 92 and 109
- Animal weight ([1]; day 12): 98 and 128 and 111 and 107 and 91 and 109
- Animal weight ([1]; day 13): 98 and 128 and 112 and 108 (2×) and 90
- Animal weight ([1]; day 14): 99 and 130 and 115 and 109 and 91 and 111
- Animal weight ([1]; day −1): 77 and 101 and 85 and 82 and 76 and 94
- day of peak mean mucositis score [2, 4]: 19
- peak mean mucositis score [2, 4]: 3.3
- peak mean mucositis score ([2]; 100 ug/kg on days 1, 4, 5 and 10 through 29): 2.9
- day of peak mean mucositis score [2, 5]: 17
- peak mean mucositis score [2, 5]: 3.0
- % Days >=3 ([2]; sc Days 0 to 3 and 6 to 9): 24%
- Days <3 ([2]; sc Days 0 to 3 and 6 to 9): 228
- % Days >=3 ([2]; sc Days -1, 4, 5 10 to 29): 30.7%
- Days <3 ([2]; sc Days -1, 4, 5 10 to 29): 208
- % Days >=3 ([2]; sc Days -1 to 29): 32.7%
- Days <3 ([2]; sc Days -1 to 29): 202
- Days >=3 ([2]; sc Days 0 to 3 and 6 to 9): 72
- Days >=3 ([2]; sc Days -1, 4, 5 10 to 29): 92
- Days >=3 ([2]; sc Days -1 to 29): 98
- Chi Sq v control ([2]; sc Days 0 to 3 and 6 to 9): 0.3160
- Chi Sq v control ([2]; sc Days -1, 4, 5 10 to 29): 0.2300
- Chi Sq v control ([2]; sc Days -1 to 29): 0.575
- expression of Thy-1.2 on bone marrow cells [3]: stimulates
